# Source: patent publication US20230301982A1, “N'-(2-CHLORO-6-METHYLBENZOYL)-4-METHYL-3-[2-(3-QUINOLYL)ETHYNYL]-BENZOHYDRAZIDE FOR TREATMENT OF ALZHEIMER'S DISEASE” (SUN PHARMA ADVANCED RESEARCH COMPANY LIMITED, priority 2020, published 2023)
# Assays:
# Aβ42 = assay: Estimation of Aβ42 and Aβ42/Aβ40 ratio in TgSwDI mice using ELISA; type: in vivo; conditions: o.d., 96 days, TgSwDI mice cortex
# Protocol: Female TgSwDI (expresses human APP gene containing Swedish, Dutch, and Iowa mutations) of 5-7 months of age were used for the study. Animals were habituated for handling for one week prior to initiation of dosing. All experiments involving animals were performed in accordance with institutional guidelines for the use and care of animals after approval from the Institutional Animal Ethics Committee (IAEC), Sun Pharma Advanced Research Company (SPARC) Ltd. Mice were housed at an ambient temperature of 25° C. under 12 hours light-dark cycle with free access to food chow and drinking water. Animals were treated with assigned treatments p.o., o.d., for a period of 96 days. […] After completion of treatment phase, mice from each treatment group were perfused with ice-cold phosphate buffered saline (PBS, pH 7.4), brain was excised, cortex was isolated and processed for preparation of lysates as per protocol provided by Invitrogen ELISA kit. Estimation of Aβ42 and Aβ40 were carried out as per the instructions provided by Invitrogen user manual. Ratio of Aβ42/40 was calculated.
# Tg APP/PS1 mice = assay: Contextual fear conditioning (CFC): freezing behaviour in Tg APP/PS1 mice; type: in vivo; conditions: 24 hours after fear conditioning
# Protocol: (§1) Six month old male APP/PS1 mice which show little overt behavioral or pathological phenotype of AD were used. All experiments involving animals were performed in accordance with institutional guidelines for the use and care of animals after approval from the Institutional Animal Ethics Committee (IAEC), Central Animal Facility, Indian Institute of Science. Only male mice were used for the study and were housed at ambient temperature of 25° C. under 12 hours light-dark cycle with free access to food chow and drinking water. All mice were dosed once a day, orally with placebo for Compound 1 at 30 and 45 mg/kg for a period of three months.
# (§2) After completion of treatment phase, mice were subjected to behavioural assessment using CFC test, followed by biochemical estimation of brain Aβ using an enzyme-linked immunosorbent assay (ELISA) and Aβ plaque load using Immunohistochemistry (IHC).
# The CFC test was performed using an apparatus from San Diego Instruments (CA, USA). The CFC training context was rectangular in shape, identity of the context was maintained with the presence of distinct odor (2% acetic acid, v/v). The conditioning chamber was cleaned with 70% ethanol before and after each session. […] Contextual fear memory was assessed by returning mice to the training context 24 hours after fear conditioning and analyzing freezing during a test period of 2 minutes. […]
# total Aβ = assay: Total Aβ content in cortex of Tg APP/PS1 mice using ELISA; type: in vivo
# Protocol: as §1, §2
# The animals were (n=10/treatment) deeply anesthetized with a mixture of xylazine and ketamine (1:8), perfused with 10 mL of 1x saline for 4 minutes, their brains were excised, homogenized immediately in 0.5 mL ELISA buffer, and centrifuged at 5000xg for 15 minutes at 4° C. to precipitate the pellet. Total Aβ was estimated in the cortex of APP/PS1 mice using ELISA assay kit as per the manufacturer instruction.
# [1] = tested on: ECG parameters (QT interval, QTc interval, QTCf interval and heart rate); assay: in vivo effect on ECG parameters in guinea pig; conditions: at a therapeutically effective dose
# hERG channel = hERG channel (Homo sapiens, UniProt Q12809); assay: in vitro effect on hERG channel; conditions: at a therapeutically effective dose
# Sequence of hERG channel (Q12809 whole entry): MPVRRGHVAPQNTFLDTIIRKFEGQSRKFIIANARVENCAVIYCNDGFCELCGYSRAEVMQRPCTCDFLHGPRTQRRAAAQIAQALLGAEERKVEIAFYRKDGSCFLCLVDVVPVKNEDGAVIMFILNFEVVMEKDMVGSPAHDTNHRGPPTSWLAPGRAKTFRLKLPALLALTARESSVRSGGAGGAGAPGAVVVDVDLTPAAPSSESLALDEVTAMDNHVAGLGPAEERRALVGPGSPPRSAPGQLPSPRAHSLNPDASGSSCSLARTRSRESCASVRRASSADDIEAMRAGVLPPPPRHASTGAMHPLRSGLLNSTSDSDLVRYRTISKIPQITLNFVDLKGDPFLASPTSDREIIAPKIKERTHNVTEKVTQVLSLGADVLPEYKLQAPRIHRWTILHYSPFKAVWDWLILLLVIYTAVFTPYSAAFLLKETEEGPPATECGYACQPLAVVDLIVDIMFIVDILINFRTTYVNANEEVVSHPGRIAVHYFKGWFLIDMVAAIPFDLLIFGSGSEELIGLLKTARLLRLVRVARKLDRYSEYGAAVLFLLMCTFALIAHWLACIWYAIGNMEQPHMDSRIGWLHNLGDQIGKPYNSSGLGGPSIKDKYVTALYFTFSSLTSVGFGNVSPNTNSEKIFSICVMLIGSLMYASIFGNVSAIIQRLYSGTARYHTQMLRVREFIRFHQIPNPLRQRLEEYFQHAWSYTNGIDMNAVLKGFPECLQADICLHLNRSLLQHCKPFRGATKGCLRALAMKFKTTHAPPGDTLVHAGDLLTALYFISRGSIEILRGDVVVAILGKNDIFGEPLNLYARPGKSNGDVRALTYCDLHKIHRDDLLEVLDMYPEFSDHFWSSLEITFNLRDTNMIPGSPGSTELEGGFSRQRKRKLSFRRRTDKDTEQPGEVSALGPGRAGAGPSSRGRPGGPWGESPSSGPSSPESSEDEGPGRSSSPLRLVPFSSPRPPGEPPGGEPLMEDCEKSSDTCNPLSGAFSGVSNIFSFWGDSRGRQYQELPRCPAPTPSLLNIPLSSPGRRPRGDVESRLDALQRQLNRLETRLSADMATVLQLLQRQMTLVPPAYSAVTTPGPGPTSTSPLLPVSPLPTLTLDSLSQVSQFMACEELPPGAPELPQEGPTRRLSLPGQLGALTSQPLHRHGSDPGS
# Aβ plaque = Aβ plaque load (% area fraction) in cortex of Tg APP/PS1 mice using IHC; type: in vivo; conditions: 30 mg/kg orally once a day for three months
# Protocol: as §1, §2
# Mouse brains (n=5/treatment) were fixed in 4% (w/v) buffered paraformaldehyde (PFA). The brain tissues were processed for paraffin embedding and serial sections ([…]) were cut using microtome (Leica Biosystems Inc., Buffalo Grove, IL, USA). Sections were de-waxed by xylene treatment followed by a brief wash with chloroform to remove the residual xylene. Endogenous peroxidase activity was blocked with methanol containing hydrogen peroxide (3%, v/v) for 30 minutes. […]
# K562 cells = assay: In-vitro Cell Proliferation Assay (K562 cells; measure of endogenous Bcr-Abl kinase inhibition); type: cell-based; conditions: for inhibition at 0.0001 µM: Homo sapiens, read-out: % inhibition (at 0.1 nM), 0.1 nM, cell proliferation of K562 cells
# From the text: (For experimental procedure, refer to the ‘416 publication under In-vitro Cell Proliferation Assay heading).
# [2] = tested on: ECG parameters (QT interval, QTc interval, QTCf interval and heart rate); assay: in vivo effect on ECG parameters in conscious beagle dogs; conditions: at a therapeutically effective dose
# [3] = Concentration of compounds in brain and plasma; type: in vivo
# [4] = 30 mg/kg orally once a day for three months
# [5] = 45 mg/kg orally once a day for three months
smiles,measurement,setting,value
"Cc1ccc(C(=O)NNC(=O)c2c(C)cccc2Cl)cc1C#Cc1cnc2ccccc2c1 [Compound 1, N′-(2-chloro-6-methylbenzoyl)-4-methyl-3-[2-(3-quinolyl)ethynyl]-benzohydrazide]",effect on Aβ42 content compared to placebo group,Aβ42; 30 mg/kg p.o.,statistically significant
same,effect on Aβ42 content compared to placebo group,Aβ42; 45 mg/kg p.o.,statistically significant
same,"Aβ42/Aβ40 ratio, trend over doses","Aβ42; 15, 30, and 45 mg/kg p.o.",dose-dependent reduction
same,"Aβ42 content, trend over doses","Aβ42; 15, 30, and 45 mg/kg p.o.",dose-dependent reduction
same,% freezing of mice (CFC) compared to placebo treated group,Tg APP/PS1 mice; [4],significant increase
same,% freezing of mice (CFC) compared to placebo treated group,Tg APP/PS1 mice; [5],significant increase
same,total Aβ content in cortex compared to placebo treated group,total Aβ; [4],significant reduction
same,total Aβ content in cortex compared to placebo treated group,total Aβ; [5],significant reduction
same,"cardiovascular side effects: in vivo effect on ECG parameters (QT, QTc, QTCf interval, heart rate)",[1],devoid of cardiovascular side effects
same,cardiovascular side effects: in vitro effect on hERG channel,hERG channel,devoid of cardiovascular side effects
same,Aβ plaque (% area fraction) in cortex compared to placebo,Aβ plaque,significantly reduced
same,inhibition at 0.0001 µM,K562 cells,37%
same,potency (inhibition of K562 cell proliferation),"K562 cells; at 0.1 nM, Compound 1 versus similar compounds from the ‘416 publication",significantly higher
same,"cardiovascular side effects: in vivo effect on ECG parameters (QT, QTc, QTCf interval, heart rate)",[2],devoid of cardiovascular side effects
same,higher ratio of brain to plasma concentration compared to nilotinib,"[3]; at 1 hour, versus nilotinib",about 40 times
same,brain penetration compared with dasatinib,[3]; versus dasatinib,significantly better brain penetration
same,ratio of concentration in brain to plasma as compared to nilotinib or dasatinib,[3]; versus nilotinib or dasatinib,significantly higher
Cc1ccc(C(=O)NNC(=O)c2c(C)cccc2Cl)cc1C#Cc1ccc2ncccc2c1 [Compound 1.10 of the ‘416 publication],inhibition at 0.0001 µM,K562 cells,0%
Cc1cccc(Cl)c1C(=O)NNC(=O)c1ccc(F)c(C#Cc2cnc3ccccc3c2)c1 [Compound 1.21 of the ‘416 publication],inhibition at 0.0001 µM,K562 cells,6%
Cc1ccc(C(=O)NNC(=O)c2c(C)cccc2Cl)cc1C#Cc1cnc2ccc(Cl)cc2c1 [Compound 1.50 of the ‘416 publication],inhibition at 0.0001 µM,K562 cells,0%
Cc1ccc(C(=O)NNC(=O)c2c(C)cccc2Cl)cc1C#Cc1cnc2ccc(F)cc2c1 [Compound 1.55 of the ‘416 publication],inhibition at 0.0001 µM,K562 cells,0%
Cc1cccc(Cl)c1C(=O)NNC(=O)c1cccc(C#Cc2cnc3ccccc3c2)c1 [Compound 1.59 of the ‘416 publication],inhibition at 0.0001 µM,K562 cells,2%
"Cc1cn(-c2cc(NC(=O)c3ccc(C)c(Nc4nccc(-c5cccnc5)n4)c3)cc(C(F)(F)F)c2)cn1 [Nilotinib, nilotinib, reference compound]",effect on Aβ42 content compared to placebo group,Aβ42; 30 mg/kg p.o.,no statistically significant reduction
